In patent US20250223284A1, “REVERSIBLE DPP1 INHIBITORS AND USES THEREOF” (Insmed Incorporated, priority 2023, published 2025):

molecular target: mouse DPP1 enzyme (Mus musculus (Mouse), UniProt P97821); assay: Mouse DPP1 Enzyme IC50 Assay; format: biochemical; details: active mouse DPP1 enzyme, H-Gly-Arg-AMC substrate, 10 min pre-incubation at 37° C., MES pH 5.5
Experimental: Test articles were applied to active mouse DPP1 enzyme (R&D Systems; Minneapolis, MN) in Assay Buffer (50 mM MES pH 5.5, 50 mM NaCl, 5 mM DTT) in a total reaction volume of 125 μL. 25 μL of compound in Assay Buffer plus 5% DMSO was first added to 50 μL of active mouse DPP1 enzyme at a concentration of 62.5 pg/μL and allowed to pre-incubate for 10 minutes at 37° C. after which 50 μL of 1000 μM H-Gly-Arg-AMC substrate (Bachem; St. Torrance, CA) was added, giving final substrate concentration of 400 µM and a final DMSO concentration of 1%. Substrate cleavage was measured for 90 minutes at 37° C., with fluorescence at Excitation/Emission 350/450 nm measured every 5 minutes. DPP1 concentration was interpolated based on its activity relative to a standard curve of recombinant active mouse DPP1 enzyme. IC50 values for each compound were calculated via the XLFit (IDBS Version 5.3.1.3) Add-On to Microsoft Excel using the four parameter fit equation y=(A+((B−A)/(1+ ((C/x)^D)))), which appears as equation number 205 (4 Parameter Logistic Model or Sigmoidal Dose-Response Model) in XLFit. Default constraints were used for each Parameter. IC50 was defined as the compound concentration at which 50% of enzyme activity was inhibited when compared to the no-compound control.

Chain of mouse DPP1 enzyme (P97821 25-134): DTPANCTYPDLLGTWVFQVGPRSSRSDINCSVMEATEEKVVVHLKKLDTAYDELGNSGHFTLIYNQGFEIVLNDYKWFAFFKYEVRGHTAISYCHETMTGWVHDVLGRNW
Chain of mouse DPP1 enzyme (P97821 231-393): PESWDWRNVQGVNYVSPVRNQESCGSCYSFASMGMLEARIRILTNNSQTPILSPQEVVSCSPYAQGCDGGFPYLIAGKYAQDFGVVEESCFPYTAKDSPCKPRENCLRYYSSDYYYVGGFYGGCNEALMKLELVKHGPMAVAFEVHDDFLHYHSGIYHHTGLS
Chain of mouse DPP1 enzyme (P97821 394-462): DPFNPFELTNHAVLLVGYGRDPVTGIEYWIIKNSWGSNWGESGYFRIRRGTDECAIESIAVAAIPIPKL

SMILES	IC50 [nM]
Cn1c(=O)oc2ccc(-c3ccc(C[C@@H](C#N)NC(=O)[C@H]4CCCCCNC4)cc3)cc21 (single isomer, unassigned)	54
CCO[C@@]1(C)CNC[C@@H](C(=O)N[C@H](C#N)Cc2ccc(-c3ccc4oc(=O)n(C)c4c3)cc2)OC1 (single isomer, unassigned) [drawing 503]	> 5000
Cn1c(=O)oc2ccc(-c3ccc(C[C@@H](C#N)NC(=O)[C@H]4CCCCCNC4)c(F)c3)cc21 (single isomer, unassigned) [drawing 501]	148 ± 16
Cn1c(=O)oc2ccc(-c3ccc(C[C@@H](C#N)NC(=O)[C@@H]4CCCCCNC4)cc3)cc21 [drawing 502]	629
Cn1c(=O)oc2ccc(-c3ccc(C[C@@H](C#N)NC(=O)[C@@H]4CNCC5(CCO5)CO4)cc3)cc21 (single isomer, unassigned) [drawing 495]	4.2 ± 0.8
Cn1c(=O)oc2ccc(-c3ccc(C[C@@H](C#N)NC(=O)C4CCCCCNC4)cc3)cc21 (stereo partly drawn) [IA]	63.4
Cn1c(=O)oc2ccc(-c3ccc(C[C@@H](C#N)NC(=O)[C@@H]4CNC[C@@]5(CCO5)CO4)cc3)cc21 (single isomer, unassigned) [drawing 496]	2.36 ± 0.3
CO[C@@H]1CCO[C@H](C(=O)N[C@H](C#N)Cc2ccc(-c3ccc4oc(=O)n(C)c4c3)cc2)CNC1 (single isomer, unassigned) [drawing 505]	7.04
CCO[C@@H]1CCNC[C@@H](C(=O)N[C@H](C#N)Cc2ccc(-c3ccc4oc(=O)n(C)c4c3)cc2)OC1 (single isomer, unassigned) [drawing 499]	6.05 ± 2
Cn1c(=O)oc2ccc(-c3ccc(C[C@@H](C#N)NC(=O)[C@@H]4CNCCCCO4)cc3)cc21 (single isomer, unassigned) [drawing 497]	33.9 ± 4

Second part, the compound after the results:

IC50 [nM]	SMILES
36.9	CC[C@@]1(O)CNC[C@@H](C(=O)N[C@H](C#N)Cc2ccc(-c3ccc4oc(=O)n(C)c4c3)cc2)OC1 (single isomer, unassigned) [drawing 492]
17.8 ± 2	CN1CC2(C1)OC(=O)c1ccc(-c3ccc(C[C@@H](C#N)NC(=O)[C@@H]4CNCCCCO4)cc3)cc12 (single isomer, unassigned) [drawing 498]
1640	CCO[C@]1(C)CNC[C@@H](C(=O)N[C@H](C#N)Cc2ccc(-c3ccc4oc(=O)n(C)c4c3)cc2)OC1 (single isomer, unassigned) [drawing 504]
351 ± 223	Cn1c(=O)oc2ccc(-c3ccc(C[C@@H](C#N)NC(=O)[C@@H]4CNC[C@](C)(O)CO4)cc3)cc21 (single isomer, unassigned) [drawing 491]
41.4 ± 4.5	Cn1c(=O)oc2ccc(-c3ccc(C[C@@H](C#N)NC(=O)[C@@H]4CNCCCCO4)cc3)cc21 (single isomer, unassigned) [drawing 490]
13.1 ± 3.7	Cn1c(=O)oc2ccc(-c3ccc(C[C@@H](C#N)NC(=O)C4CCCCCNC4)c(F)c3)cc21 (single isomer, unassigned) [drawing 500]
> 5000	CC(C)[C@]1(O)CNC[C@@H](C(=O)N[C@H](C#N)Cc2ccc(-c3ccc4oc(=O)n(C)c4c3)cc2)OC1 (single isomer, unassigned) [drawing 494]
4040	CC[C@]1(O)CNC[C@@H](C(=O)N[C@H](C#N)Cc2ccc(-c3ccc4oc(=O)n(C)c4c3)cc2)OC1 (single isomer, unassigned) [drawing 493]
